# Target: T1, Langerin ECD (Homo sapiens, UniProt Q9UJ71)
# T1 construct: The ECD of Langerin (residues 68–328) was overexpressed and purified as previously described; made in house
# Assay: SPR competition (inhibition) assay with trimeric Langerin ECD
# Type: binding
# Settings: Biacore T200, CM3 chip with BSA-Manα1-3[Manα1-6]Man, Langerin ECD 20 μM, 25 mM Tris-HCl pH 8, 150 mM NaCl, 4 mM CaCl2, 0.05% P20, four parameter fit
# Procedure: The ECD of Langerin (residues 68–328) was overexpressed and purified as previously described ([Thépaut et al., 2009]). The SPR competition experiments were performed on a Biacore T200 using a CM3 series S sensor chip. Control flow cell 1 was functionalized with bovine serum albumin (BSA), whereas flow cell 2 and 3 were treated with 60 μg/mL BSA-Man α1-3[Manα1-6]Man (Dextra) in 10 mM NaOAc pH4 (final densities 2.062 and 2.183 RU, respectively). All flow cells were blocked with ethanolamine. […] Langerin ECD (20 μM) was injected at 5 μL/min, with or without inhibitor at increasing concentrations. The data were analyzed in Biacore BIAevaluation software using four parameter equation, and the IC50 was determined.
# T1 sequence (Q9UJ71 68-328): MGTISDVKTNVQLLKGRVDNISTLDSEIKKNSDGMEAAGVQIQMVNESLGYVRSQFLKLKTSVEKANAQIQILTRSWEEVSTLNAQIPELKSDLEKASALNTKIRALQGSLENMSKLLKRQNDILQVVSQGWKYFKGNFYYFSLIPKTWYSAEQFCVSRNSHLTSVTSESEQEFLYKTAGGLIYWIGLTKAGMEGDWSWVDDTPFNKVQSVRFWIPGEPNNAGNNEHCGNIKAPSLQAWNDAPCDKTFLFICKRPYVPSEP
row,SMILES,IC50 [µM]
1,CC(=O)N[C@@H](CCCCn1cc(CO[C@H]2O[C@H](CO)[C@@H](O)[C@H](O[C@H]3O[C@H](CO)[C@@H](O)[C@H](O)[C@@H]3O)[C@@H]2O)nn1)C(=O)NCC(=O)N[C@@H](CCCCn1cc(CO[C@H]2O[C@H](CO)[C@@H](O)[C@H](O[C@H]3O[C@H](CO)[C@@H](O)[C@H](O)[C@@H]3O)[C@@H]2O)nn1)C(=O)NCC(=O)N[C@@H](CCCCN)C(N)=O [Ligand C2],1420
2,CC(=O)N[C@@H](CCCCn1cc(CO[C@H]2O[C@H](CO)[C@@H](O)[C@H](O)[C@@H]2O[C@H]2O[C@H](CO)[C@@H](O)[C@H](O)[C@@H]2O)nn1)C(=O)NCC(=O)N[C@@H](CCCCN)C(N)=O [Ligand B1],4140
3,CC(=O)N[C@@H](CCCCn1cc(CO[C@H]2O[C@H](CO)[C@@H](O)[C@H](O)[C@@H]2O)nn1)C(=O)NCC(=O)N[C@@H](CCCCn1cc(CO[C@H]2O[C@H](CO)[C@@H](O)[C@H](O)[C@@H]2O)nn1)C(=O)NCC(=O)N[C@@H](CCCCN)C(N)=O [Ligand A2],2420 ± 30
4,CC(=O)N[C@@H](CCCCn1cc(CO[C@H]2O[C@H](CO)[C@@H](O)[C@H](O)[C@@H]2O[C@H]2O[C@H](CO)[C@@H](O)[C@H](O)[C@@H]2O)nn1)C(=O)NCC(=O)N[C@@H](CCCCn1cc(CO[C@H]2O[C@H](CO)[C@@H](O)[C@H](O)[C@@H]2O[C@H]2O[C@H](CO)[C@@H](O)[C@H](O)[C@@H]2O)nn1)C(=O)NCC(=O)N[C@@H](CCCCN)C(N)=O [Ligand B2],181 ± 4

# Target: T2, Langerin S-ECD (Homo sapiens, UniProt Q9UJ71)
# T2 construct: The ECD of Langerin (residues 68–328) was overexpressed and purified as previously described; made in house
# Assay: SPR direct interaction assay on oriented Langerin S-ECD surface
# Type: binding
# Settings: Langerin S-ECD captured via StreptagII on CM3 chip, flow 30 μL/min, same running buffer pH 8, 1:1 fit, apparent Kd, read-out: Kdapp
# Procedure: To determine the apparent Kd value, direct interaction experiments were executed on a T200 Biacore with a CM3 series S sensor chip. The Langerin ECD in this assay was functionalized with a […] on the N-terminus (Langerin S-ECD), for oriented capture on the sensor chip surface. The flow cells were functionalized with streptactin protein after EDC/NHS activation. Control flow cell 1 was functionalized with BSA, whereas another flow cell was functionalized with 100 μg/mL Langerin S-ECD via tag-specific capture and simultaneous amine coupling as previously described ([Porkolab et al., 2020]). An approximate density of about 2.609 RU was achieved on the chip surface. The compounds were injected in increasing concentrations with a flow rate of 30 μL/min in the previously mentioned running buffer. The data were analyzed in Biacore BIAevaluation software for direct interaction 1:1 calculation to determine the apparent Kd value.
# T2 sequence (Q9UJ71 68-328): as above
row,SMILES,Kd [µM]
1,CC(=O)N[C@@H](CCCCn1cc(CO[C@H]2O[C@H](CO[C@H]3O[C@H](CO)[C@@H](O)[C@H](O)[C@@H]3O)[C@@H](O)[C@H](O[C@H]3O[C@H](CO)[C@@H](O)[C@H](O)[C@@H]3O)[C@@H]2O)nn1)C(=O)NCC(=O)N[C@@H](CCCCn1cc(CO[C@H]2O[C@H](CO[C@H]3O[C@H](CO)[C@@H](O)[C@H](O)[C@@H]3O)[C@@H](O)[C@H](O[C@H]3O[C@H](CO)[C@@H](O)[C@H](O)[C@@H]3O)[C@@H]2O)nn1)C(=O)NCC(=O)N[C@@H](CCCCN)C(N)=O [Ligand E2],278
2,CC(=O)N[C@@H](CCCCn1cc(CO[C@H]2O[C@H](CO[C@H]3O[C@H](CO)[C@@H](O)[C@H](O)[C@@H]3O)[C@@H](O)[C@H](O)[C@@H]2O)nn1)C(=O)NCC(=O)N[C@@H](CCCCn1cc(CO[C@H]2O[C@H](CO[C@H]3O[C@H](CO)[C@@H](O)[C@H](O)[C@@H]3O)[C@@H](O)[C@H](O)[C@@H]2O)nn1)C(=O)NCC(=O)N[C@@H](CCCCN)C(N)=O [Ligand D2],16

# Reference: article PMC7371993, “Targeting of the C-Type Lectin Receptor Langerin Using Bifunctional Mannosylated Antigens” (Frontiers in Cell and Developmental Biology, 2020)
